Test results published in patent EP0655506B1 (priority 1994, dated 1995).

Columns and labels:
Assay in all cases: SDS activity gel analysis, incorporation of ddNMP relative to dNMP (Example 2)
Type in all cases: biochemical, bacteriophage T7
[1] = target: T1, T7 DNA polymerase mutant T7 C-T4, R D N A K A I N F G F L Y G (Escherichia phage T7, UniProt P00581, DEL118-145/F524I/I525N/T523A/Y526F); settings: renatured enzyme in gel; 1.5 µM 4dNTPs with or without 30 µM ddTTP; 37 °C 4 hr
T1 construct: made in house; host or cells: induced cells of a strain producing E. coli thioredoxin; crude lysate, renatured in gel
T1 sequence (P00581 other isoform, or with tags, fused parts or gaps DEL118-145/T523A/F524I/I525N/Y526F): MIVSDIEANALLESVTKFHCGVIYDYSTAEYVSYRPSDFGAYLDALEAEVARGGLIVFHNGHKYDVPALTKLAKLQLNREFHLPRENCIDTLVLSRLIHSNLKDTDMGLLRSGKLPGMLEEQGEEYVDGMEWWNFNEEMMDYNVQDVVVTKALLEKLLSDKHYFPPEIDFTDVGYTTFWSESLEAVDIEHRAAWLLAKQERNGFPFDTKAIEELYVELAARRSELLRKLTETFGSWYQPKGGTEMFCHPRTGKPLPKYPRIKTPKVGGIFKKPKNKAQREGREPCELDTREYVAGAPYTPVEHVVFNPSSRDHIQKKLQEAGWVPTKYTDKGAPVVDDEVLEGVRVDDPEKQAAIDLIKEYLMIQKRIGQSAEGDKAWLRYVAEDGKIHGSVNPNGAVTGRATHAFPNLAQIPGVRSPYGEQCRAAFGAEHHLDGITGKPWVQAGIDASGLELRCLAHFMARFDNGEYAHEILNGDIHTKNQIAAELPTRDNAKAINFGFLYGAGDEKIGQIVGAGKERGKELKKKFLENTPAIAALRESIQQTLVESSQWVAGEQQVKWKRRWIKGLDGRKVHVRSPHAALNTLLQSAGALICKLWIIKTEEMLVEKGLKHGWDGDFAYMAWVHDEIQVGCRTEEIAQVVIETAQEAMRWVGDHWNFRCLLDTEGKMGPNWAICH
T1 sequence (P0AA25 2-109, stated change not applied, further chain): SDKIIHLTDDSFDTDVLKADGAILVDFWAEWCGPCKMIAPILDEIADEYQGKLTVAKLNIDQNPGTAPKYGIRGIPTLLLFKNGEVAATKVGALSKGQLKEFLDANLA
Procedure: (§1) Mutant DNA polymerases are screened for their ability to incorporate dideoxynucleotides by SDS activity gel analysis. The procedure is a modification of that described by Spanos and Hübscher 91 Methods in Enzymology 263, 1983 and Karawya et al. 135 Analytical Biochemistry 318, 1983. Briefly, 10 ml of cells are induced for 4 to 6 hours and then pelleted. The cell pellet is resuspended in 0.3 ml 25 mM Tris HCl, pH 7.0, 5 mM EDTA. 20 µl of the resuspended cells are mixed with 40 µl of a solution of 1% SDS (sodium dodecyl sulfate), 2% mercaptoethanol, 30 % glycerol, 0.04% bromphenol blue, and 100 mM TrisHCl, pH 6.8. The mixtures are incubated at 37 °C for 5 min, and then 20 µl aliquots are loaded in duplicate onto two SDS polyacrylamide gels. The SDS polyacrylamide gels consist of a resolving gel that contains 8% polyacrylamide, 0.27% bisacrylamide, 190 mM TrisHCl, pH 8.8, 0.05% SDS, and 25 µg/ml denatured salmon sperm DNA, and a stacking gel that consists of 5% polyacrylamide, 0.17% bisacrylamide, 150 mM TrisHCl, pH 6.8, and 0.1% SDS. The two gels are electrophoresed at 100 V for 13 hr at a constant temperature of 13 °C in an electrophoresis buffer consisting of 190 mM TrisHCl and pH 8.8, 0.05% SDS.
(§2) After electrophoresis, the gels are washed over 8 hr in 4 changes of 500 ml each of Renaturation Buffer (50 mM Tris.HCl, pH 7.5, 5 mM magnesium acetate, 1 mM dithiothreitol, 40 mM KCI, 400 µg/ml bovine serum albumin, 16% glycerol and 0.95 mM EDTA) at 4 °C.
(§3) The renatured proteins are assayed for DNA polymerase activity by incubating each of the two gels in 6 ml of Renaturation Buffer, 1.5 µM 4dNTPs, 4 µl of [a-^32P]dATP (800 Ci/mmol, 10 mCi/ml), and 80 µg of purified thioredoxin. One of the mixtures also contains 30 µM ddTTP (a 20-fold molar excess over dTTP). The mixtures are incubated for 4 hr at 37 °C (70 °C for 2 hr for thermophilic DNA polymerases).
(§4) After incubation the gels are washed for 8 hr against four changes of 5% trichloracetic acid and 1% sodium pyrophosphate. The gels are then dried and autoradiographed.
(§5) To determine whether a mutant DNA polymerase is discriminating more or less against ddTTP, the intensities of the radioactive bands are compared on the two gels that were incubated in the presence and absence of ddTTP, and the ratio of the signal in the two bands for the unmodified DNA polymerase is compared with the ratio of the signal in the two bands for each of the mutants.

[2] = target: T2, T7 DNA polymerase mutant T7 C-T6, R D N A K T F N F G F L Y G (Escherichia phage T7, UniProt P00581, DEL118-145/I525N/Y526F); settings: renatured enzyme in gel; 1.5 µM 4dNTPs with or without 30 µM ddTTP; 37 °C 4 hr
T2 construct: made in house; host or cells: induced cells of a strain producing E. coli thioredoxin; crude lysate, renatured in gel
T2 sequence (P0AA25 2-109, stated change not applied): as the sequence (P0AA25 2-109, stated change not applied, further chain) above
T2 sequence (P00581 other isoform, or with tags, fused parts or gaps DEL118-145/I525N/Y526F): as the sequence (P00581 other isoform, or with tags, fused parts or gaps DEL118-145/T523A/F524I/I525N/Y526F) above, with A495T, I496F counted along it
Procedure: as §1, §2, §3, §4, §5

[3] = target: T3, T7 DNA polymerase mutant T7 C-T3, R R S A K T F I Y G F L Y G (Escherichia phage T7, UniProt P00581, D519R/DEL118-145/N520S); settings: renatured enzyme in gel; 1.5 µM 4dNTPs with or without 30 µM ddTTP; 37 °C 4 hr
T3 construct: made in house; host or cells: induced cells of a strain producing E. coli thioredoxin; crude lysate, renatured in gel
T3 sequence (P00581 other isoform, or with tags, fused parts or gaps DEL118-145/D519R/N520S): as the sequence (P00581 other isoform, or with tags, fused parts or gaps DEL118-145/T523A/F524I/I525N/Y526F) above, with D491R, N492S, A495T, I496F, N497I, F498Y counted along it
T3 sequence (P0AA25 2-109, stated change not applied, further chain): as the sequence (P0AA25 2-109, stated change not applied, further chain) above
Procedure: as §1, §2, §3, §4, §5

[4] = target: T4, T7 DNA polymerase mutant T7 C-T8 (Y526F), R D N A K T F I F G F L Y G (Escherichia phage T7, UniProt P00581, DEL118-145/Y526F)
T4 construct: made in house; host or cells: induced cells of a strain producing E. coli thioredoxin; crude lysate, renatured in gel
T4 sequence (P00581 other isoform, or with tags, fused parts or gaps DEL118-145/Y526F): as the sequence (P00581 other isoform, or with tags, fused parts or gaps DEL118-145/T523A/F524I/I525N/Y526F) above, with A495T, I496F, N497I counted along it
T4 sequence (P0AA25 2-109, stated change not applied, further chain): as the sequence (P0AA25 2-109, stated change not applied, further chain) above
Procedure: as §1, §2, §3, §4, §5

[5] = target: T5, T7 DNA polymerase mutant T7 C-T7, R D N A K T F N Y G F L Y G (Escherichia phage T7, UniProt P00581, DEL118-145/I525N); settings: renatured enzyme in gel; 1.5 µM 4dNTPs with or without 30 µM ddTTP; 37 °C 4 hr
T5 construct: made in house; host or cells: induced cells of a strain producing E. coli thioredoxin; crude lysate, renatured in gel
T5 sequence (P0AA25 2-109, stated change not applied): as the sequence (P0AA25 2-109, stated change not applied, further chain) above
T5 sequence (P00581 other isoform, or with tags, fused parts or gaps DEL118-145/I525N): as the sequence (P00581 other isoform, or with tags, fused parts or gaps DEL118-145/T523A/F524I/I525N/Y526F) above, with A495T, I496F, F498Y counted along it
Procedure: as §1, §2, §3, §4, §5

[6] = target: T6, T7 DNA polymerase mutant T7 C-T5, R D N A K A I I Y G F L Y G (Escherichia phage T7, UniProt P00581, DEL118-145/F524I/T523A); settings: renatured enzyme in gel; 1.5 µM 4dNTPs with or without 30 µM ddTTP; 37 °C 4 hr
T6 construct: made in house; host or cells: induced cells of a strain producing E. coli thioredoxin; crude lysate, renatured in gel
T6 sequence (P0AA25 2-109, stated change not applied): as the sequence (P0AA25 2-109, stated change not applied, further chain) above
T6 sequence (P00581 other isoform, or with tags, fused parts or gaps DEL118-145/T523A/F524I): as the sequence (P00581 other isoform, or with tags, fused parts or gaps DEL118-145/T523A/F524I/I525N/Y526F) above, with N497I, F498Y counted along it
Procedure: as §1, §2, §3, §4, §5

[7] = target: T7, T7 DNA polymerase, wild type (T7 WT), R D N A K T F I Y G F L Y G (Escherichia phage T7, UniProt P00581, DEL118-145)
T7 construct: made in house; host or cells: induced cells of a strain producing E. coli thioredoxin; crude lysate, renatured in gel
T7 sequence (P00581 other isoform, or with tags, fused parts or gaps DEL118-145): as the sequence (P00581 other isoform, or with tags, fused parts or gaps DEL118-145/T523A/F524I/I525N/Y526F) above, with A495T, I496F, N497I, F498Y counted along it
T7 sequence (P0AA25 2-109, stated change not applied, further chain): as the sequence (P0AA25 2-109, stated change not applied, further chain) above
Procedure: as §1, §2, §3, §4, §5

[8] = target: T8, T7 DNA polymerase mutant T7 C-T2, R R S A K A I N F G L I Y G (Escherichia phage T7, UniProt P00581, D519R/DEL118-145/F524I/F528L/I525N/L529I/N520S/T523A/Y526F); settings: renatured enzyme in gel; 1.5 µM 4dNTPs with or without 30 µM ddTTP; 37 °C 4 hr
T8 construct: made in house; host or cells: induced cells of a strain producing E. coli thioredoxin; crude lysate, renatured in gel
T8 sequence (P00581 other isoform, or with tags, fused parts or gaps DEL118-145/D519R/N520S/T523A/F524I/I525N/Y526F/F528L/L529I): as the sequence (P00581 other isoform, or with tags, fused parts or gaps DEL118-145/T523A/F524I/I525N/Y526F) above, with D491R, N492S, F500L, L501I counted along it
T8 sequence (P0AA25 2-109, stated change not applied, further chain): as the sequence (P0AA25 2-109, stated change not applied, further chain) above
Procedure: as §1, §2, §3, §4, §5

[9] = renatured enzyme in gel, 1.5 µM 4dNTPs with or without 30 µM ddTTP, 37 °C 4 hr

Cc1cn([C@H]2CC[C@@H](COP(=O)(O)OP(=O)(O)OP(=O)(O)O)O2)c(=O)[nH]c1=O [ddTTP]
ddNTP Discrimination [1]: High | ddNTP Discrimination [2]: High | ddNTP Discrimination [3]: Low | intensity of the bands in the presence versus the absence of ddTTP ([4]; 30 µM ddTTP (20-fold molar excess over dTTP), 1.5 µM 4dNTPs, within a factor of two): approximately the same intensity | ddNTP Discrimination [4, 9]: High | ddNTP Discrimination [5]: Low | ddNTP Discrimination [6]: Low | intensity of the bands in the presence of ddTTP relative to the absence of ddTTP ([7]; 30 µM ddTTP (20-fold molar excess over dTTP), 1.5 µM 4dNTPs): < 5% | ddNTP Discrimination [7, 9]: Low | ddNTP Discrimination [8]: High
